Values of other authors, collected in patent US20040102462A1, “2-(2-amino-1,6-dihydro-6-oxo-purin-9-yl) methoxy-1,3-propanediol derivative” (priority 1994, published 2004).

Settings: rats; % of the acyclovir dosed

acyclovir recovered in the urinary recovery assay: 19%
SMILES: Nc1nc2c(ncn2COCCO)c(=O)[nH]1 [acyclovir, 2-(2-amino-1,6-dihydro-6-oxo-1,6-dihydro-purin-9-yl)methoxy-ethanol]
